Key:
[1] = target: T1, ER(α) (estrogen receptor α) (Homo sapiens, UniProt P03372); assay: Binding to estrogen receptor, fluorescence polarization competition (FP Screen-for-Competitors kit, ER-α) (Example 7); details: concentration inhibiting 50% of the binding of the ES1-ER(α) complex by competing with ES1; 1 hour at room temperature
T1 construct: purchased PanVera V2577
T1 sequence (P03372 1-595): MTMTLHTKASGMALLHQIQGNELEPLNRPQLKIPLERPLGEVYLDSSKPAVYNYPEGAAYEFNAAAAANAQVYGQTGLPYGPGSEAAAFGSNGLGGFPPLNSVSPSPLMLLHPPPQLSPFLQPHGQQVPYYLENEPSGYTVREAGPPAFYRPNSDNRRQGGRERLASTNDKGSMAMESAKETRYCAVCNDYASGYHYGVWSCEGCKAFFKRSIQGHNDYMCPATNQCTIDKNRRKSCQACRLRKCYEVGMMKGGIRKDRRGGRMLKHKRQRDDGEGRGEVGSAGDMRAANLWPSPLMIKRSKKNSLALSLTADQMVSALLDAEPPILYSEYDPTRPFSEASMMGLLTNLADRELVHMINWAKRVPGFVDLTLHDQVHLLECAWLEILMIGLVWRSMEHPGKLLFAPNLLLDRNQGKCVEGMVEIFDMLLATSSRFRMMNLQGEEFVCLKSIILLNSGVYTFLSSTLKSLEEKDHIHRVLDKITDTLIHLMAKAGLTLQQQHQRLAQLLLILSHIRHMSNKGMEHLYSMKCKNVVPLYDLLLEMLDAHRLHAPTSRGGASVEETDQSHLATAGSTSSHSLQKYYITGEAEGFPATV
Method: Bindings of various gallic acid derivatives to estrogen receptor were tested using FP Screen-for-Competitors kit, ER-α, high sensitivity kit (V2577: PanVera). The tests were carried out basically according to the procedure as described in the manual attached to the kit. One of various gallic acid derivatives (n-octyl gallate (gallic acid n-octyl ester), n-dodecyl gallate (gallic acid n-dodecyl ester) and n-cetyl gallate (gallic acid n-hexadecyl ester)) was dissolved in DMSO and serially diluted to prepare diluted samples (0.5 M - 0.0000000005 M). 49 µL of Screening buffer attached to the kit was added to 1 µL of one of the diluted samples and stirred thoroughly. 50 µL of 10 nM-15 nM:ES1-ER(α) complex (a complex of ES1 (a fluorescent ligand that binds to ER) and ER(α) (estrogen receptor α)) attached to the kit was added thereto, resulting in the total volume of 100 µL. After allowing to stand for 1 hour at room temperature, fluorescence polarization was measured at an excitation wavelength of 360 nm and an emission wavelength of 535 nm using Full-Range BEACON 2000 (PanVera).

[2] = test system: human breast cancer-derived MCF-7 cells; assay: E-SCREEN assay, proliferation of cultured cells, MTT method (Example 8); type: cell-based
Method: A test for proliferation of cultured cells was carried out according to a method called the E-SCREEN assay as described in Ana M. Soto et al. (Environ. Health Perspect. 103:113-122(1995)). Briefly, 4.0 x 10^3 of human breast cancer-derived MCF-7 cells in a volume of 100 µL were seeded into each well of a 96-well plate. The plate was incubated overnight. BisA or a combination of BisA and n-octyl gallate was then added thereto. A well without the addition was used as a control. The cells were further cultured for 4 days in a medium, Dulbecco's modified Eagle medium without Phenol Red supplemented with 5% FCS treated with activated carbon-dextran. The MTT method was used to measured the cell numbers.

[3] = test system: female SD rat; assay: Anti-estrogenic activity of n-octyl gallate against BisA, rat uterine weight (Example 9); type: in vivo; details: for Uterine weight: 1.5 hours before BisA, 3 days; for Ratio: vs control (100%)
Method: (§1) A 16-days old female SD rat (Japan SLC) was purchased together with its mother, weaned at 19 days of age, and subjected to experiments from the next day. n-Octyl gallate (Tokyo Kasei Kogyo) was dissolved in a small volume of ethanol. Peanut oil was added thereto to result in a final ethanol concentration of 5%. The resulting mixture was orally administered to the 20-days old female SD rat for three successive days. The uterine removed on the day after the last administration day was weighed. Peanut oil containing 5% ethanol was used for a vehicle administration group. BisA was dissolved in a small volume of ethanol. Peanut oil was added thereto to result in a final ethanol concentration of 5%. It was orally administered 1.5 hours after the administration of n-octyl gallate.

[4] = test system: female SD rat; assay: Anti-estrogenic activity of n-octyl gallate against NP, rat uterine weight (Example 10); type: in vivo; details: for Uterine weight: 1.5 hours before NP, 3 days; for Ratio: vs control (100%)
Method: A 16-days old female SD rat (Japan SLC) was purchased together with its mother, weaned at 19 days of age, and subjected to experiments from the next day. n-Octyl gallate (Tokyo Kasei Kogyo) was dissolved in a small volume of ethanol. Peanut oil was added thereto to result in a final ethanol concentration of 5%. The resulting mixture was orally administered to the 20-days old female SD rat for three successive days. The uterine removed on the day after the last administration day was weighed. Peanut oil containing 5% ethanol was used for a vehicle administration group. NP weighed such that it would be administered at 50 mg/kg was diluted by adding peanut oil. It was orally administered 1.5 hours after the administration of n-octyl gallate.

[5] = test system: female SD rat; assay: Anti-estrogenic activity of n-octyl gallate or n-cetyl gallate against subcutaneously administered BisA, rat uterine weight (Example 11); type: in vivo; details: for Uterine weight: 3 days; for Ratio: vs control (100%)
Method: as §1, with “17-days” for “16-days”, “20” for “19”, “or n-cetyl gallate (both from Tokyo” for “(Tokyo”, “21-days” for “20-days”, “The mixture” for “It”, “subcutaneously administered.” for “orally administered 1.5 hours after the administration of n-octyl gallate.”

[6] = BisA 40 mg/kg oral + n-octyl gallate 25 mg/kg oral
[7] = BisA 40 mg/kg oral + n-octyl gallate 126 mg/kg oral
[8] = NP 50 mg/kg oral + n-octyl gallate 25 mg/kg oral
[9] = NP 50 mg/kg oral + n-octyl gallate 126 mg/kg oral
[10] = BisA 40 mg/kg subcutaneous + n-octyl gallate 5 mg/kg oral
[11] = BisA 40 mg/kg subcutaneous + n-octyl gallate 25 mg/kg oral

IC50 [1]: 3.38 µM
SMILES: CCCCCCCCOC(=O)c1cc(O)c(O)c(O)c1 [n-octyl gallate, gallic acid n-octyl ester]
Relative rate of increase in cell number ([2]; BisA + n-octyl gallate, MCF-7, 4 days culture, control = 100): 91%
suppression of the proliferation of the cells (in words) ([2]; BisA and n-octyl gallate added, MCF-7): suppressed to a degree almost the same as that of the control
Uterine weight [3, 6]: 32.7 ± 3.5 mg
Uterine weight [3, 7]: 32.9 ± 3.6 mg
Ratio [3, 6]: 108%
Ratio [3, 7]: 108%
Uterine weight [4, 8]: 40.4 ± 3.6 mg
Uterine weight [4, 9]: 38.6 ± 2.4 mg
Ratio [4, 8]: 122%
Ratio [4, 9]: 117%
Uterine weight [5, 10]: 48.3 ± 1.5 mg
Uterine weight [5, 11]: 42.1 ± 1.9 mg
Ratio [5, 10]: 117%
Ratio [5, 11]: 102%
